# Measured values from patent publication US20070123556A1, “Treatment with Sigma Receptor Agonists Post-Stroke” (UNIVERSITY OF SOUTH FLORIDA, priority 2005, published 2007).
# Several values for one entry are separate records, joined by “and”; a condition that tells them apart may be missing. Equal values may be shown once. Read-outs that look alike come from different tables or passages of the source.
# Tests used:
# [1] = tested on: rats subjected to MCAO; test: Fluoro-Jade infarct area after MCAO; type: in vivo, rat
# [2] = tested on: cultured cortical neurons; test: in vitro ischemia (sodium azide/glucose deprivation), fura-2 [Ca2+]i; type: cell-based, rat
# Description: The effects of sigma receptors on ischemia-induced changes in intracellular calcium concentrations were studied in cultured cortical neurons from embryonic (E18) rats. Dams were euthanatized by decapitation, uterus removed, and embryos dissected out and placed in isotonic buffer containing (in mM): 137 NaCl, 5 KCl, 0.2 NaH2PO4, 0.2 KH2PO4, 5.5 glucose, 6 sucrose (pH 7.4 with NaOH). Cortex were excised and minced, and tissue digested in isotonic buffer containing 0.25% trypsin/EDTA for 10 min at 37° C. and added to 3× volume of high glucose culture media (Dulbecco's Modified Eagle Media; Invitrogen, Inc., Carlsbad, Calif.), 10% (v/v) fetal calf serum, 100 U/ml penicillin and 0.1 mg/ml streptomycin. Cells were counted on a hemocytometer, plated (0.5×10^6 cells) on 18 mm coverslips coated with poly-l-lysine, and incubated at 37° C. under a 95% air, 5% CO2 atmosphere. After 24 hr the media was replaced with Neurobasal (Invitrogen) medium supplemented with B27 (Invitrogen) and 0.5 mM 1-glutamine to limit astrocyte proliferation in the cultures. Cells were used after 14-21 days in culture.
# Intracellular free-calcium was measured using the calcium sensitive dye, fura-2 as previously described (DeHaven and Cuevas, 2004). Cells plated on coverslips were incubated for 1 hour at room temperature in physiological saline solution (PSS) consisting of (in mM): 140 NaCl, 3 KCl, 2.5 CaCl2, 1.2 MgCl2, 7.7 glucose and 10 HEPES (pH to 7.2 with NaOH), which also contained 1 μM of the membrane permeable ester form of fura-2, acetoxymethylester (fura-2 AM) and 0.1% dimethyl sulfoxide (DMSO). The coverslips were then washed in PSS (fura-2 AM free) prior to the experiments being carried out. All solutions were applied via a rapid application system identical to that previously described (Cuevas and Berg, 1998).
# A DG-4 high-speed wavelength switcher (Sutter Instruments Co., Novato, Calif.) was used to apply alternating excitation light, and fluorescent emission was captured using a Sensicam digital CCD camera (Cooke Corporation, Auburn Hills, Mich.) and recorded with Slidebook 3.0 software (Intelligent Imaging Innovations, Denver, Colo.). Changes in [Ca^2+]i were calculated using the Slidebook 3 software (Intelligent Imaging Innovations) using methods described previously (DeHaven and Cuevas, 2004).
# In vitro ischemia was achieved using the sodium azide/glucose deprivation model.
# The control bath solution for all experiments was a physiological saline solution (PSS) containing (in mM) 140 NaCl, 1.2 MgCl2, 3 KCl, 2.5 CaCl2, 7.7 glucose and 10 HEPES, pH to 7.2 with NaOH. All drugs were applied in this solution unless otherwise noted. In vitro ischemia was induced by addition of the cytochrome oxidase inhibitor, NaN3 (4 mM), and removal of glucose from the PSS. For experiments in which multiple ischemic episodes were induced in a single cell, the order of drug application was alternatively reversed to compensate for any effects due to rundown, desensitization or ischemic preconditioning. For experiments with metaphit, cells were preincubated in 50 μM metaphit during the last 15 mm of fura-2 loading and immediately prior to experiments being conducted. The metaphit was washed off for 5 min in the bath using PSS.
# [3] = tested on: glutamate receptors; conditions: 100 μM; cited from earlier work
# [4] = tested on: cultured microglia; conditions: response to LPS; cited from earlier work
# [5] = tested on: cultured cortical neurons; test: spontaneous Ca2+ transients, fura-2 [Ca2+]i; type: cell-based, rat; conditions: 100 μM
# [6] = tested on: ASIC channels; test: low-pH (pH 6.0) evoked ASIC-mediated increases in [Ca2+]i; type: cell-based, rat; conditions: 100 μM, pH 6.0
# [7] = tested on: rats subjected to MCAO
# [8] = tested on: rats; conditions: doses as high as 30 mg/kg; cited from earlier work
smiles,measurement,setting,value
"Cc1ccccc1NC(=N)Nc1ccccc1C [DTG, 1,3-di-o-tolyguanidine]",decrease of Fluoro-Jade staining relative to untreated MCAO animals,"[1]; 15 mg/kg, 24 hr post stroke",> 85%
same,infarct area (Fluoro-Jade labeled),"[1]; cortical/hippocampal region, 15 mg/kg DTG from 24 h post-MCAO (MCAO-only 29±3%)",2±2%
same,infarct area (Fluoro-Jade labeled),"[1]; cortical/striatal region, 15 mg/kg DTG from 24 h post-MCAO (MCAO-only 44±5%)",6±4%
same,ischemia-induced elevation in [Ca2+]i,[2]; 50 μM DTG after preincubation in 50 μM metaphit,237 ± 39 nM
same,decrease of ischemia-evoked elevation in [Ca2+]i,"[2]; 50 μM DTG, cells preincubated in 50 μM metaphit",52±8%
same,decrease of ischemia-evoked rise in [Ca2+]i,"[2]; 50 μM DTG, control cells",~70% and 83±3%
same,ischemia-induced elevation in [Ca2+]i,"[2]; 50 μM DTG, no metaphit (control 291±47 nM)",47 ± 9 nM
same,inhibition of calcium elevations evoked by glutamate application,[3],not
same,production of TNF-α,[4],inhibits
same,production of nitric oxide,[4],inhibits
same,effect on spontaneous increases in [Ca2+]i (number of events),[5],reversibly block
same,effect on low-pH evoked transient increases in [Ca2+]i,[6],inhibits
same,survival rate 96 hours post MCAO,"[7]; 15 mg/kg daily s.c. at 24, 48, 72 h post MCAO",over 70%
same,survival rate 96 hours post MCAO,"[7]; 30 mg/kg daily s.c. at 24, 48, 72 h post MCAO",under 40%
same,deaths in sham animals following DTG application,"[7]; sham control, 15 mg/kg DTG",none
same,tolerability,[8],well tolerated
